Assay results taken from patent publication US20130317048A1, “COMBINATION COMPRISING PACLITAXEL FOR TREATING OVARIAN CANCER” (Actelion Pharmaceuticals Ltd., priority 2008, published 2013).

Experiments:
HeyA8-MDR cells = experiment: Multi-drug resistant human ovarian HeyA8-MDR tumor growth inhibition assay in mice; format: in vivo; settings: female nude mice i.p. HeyA8-MDR; after 4 weeks of treatment; paclitaxel 5 mg/kg once a week i.p.; CF(I) 50 mg/kg once a day oral
Procedure: (§1) The vehicle solution is the same as that described for the “Human SKOV3ip1 tumor growth inhibition assay in mice” (see above).
43 female nude mice are injected i.p. with 10^6 HeyA8-MDR cells into the peritoneal cavity. Ten days later, the tumor weight is evaluated in three of the mice. Mice groups and treatments (doses, frequencies and routes) for the mice groups are the same as those described in the experimental procedure for the “Human IGROV tumor growth inhibition assay in mice” (see above). After 4 weeks of treatment, the tumor incidence and weight are determined in each of the mice.

IGROV cells = experiment: Human IGROV tumor growth inhibition assay in mice; format: in vivo; settings: female nude mice i.p. IGROV; after 4 weeks of treatment; paclitaxel 5 mg/kg once a week i.p.; CF(I) 50 mg/kg once a day oral
Procedure: as §1
(§2) 43 female nude mice are injected i.p. with 10^6 IGROV cells into the peritoneal cavity. Ten days later, the tumor weight is evaluated in three of the mice. Treatment with a suspension of the compound of formula (I) in the vehicle solution (10 mice), paclitaxel diluted 1:6 in phosphate buffered saline (PBS) for i.p. injections (10 mice), a suspension of the compound of formula (I) in the vehicle solution as well as paclitaxel diluted 1:6 in PBS for i.p. injections (10 mice), or the vehicle solution only (10 mice), the vehicle solution being as described above, is administered to the mice using the following doses, frequencies and routes: • paclitaxel: 5 mg/kg (125 μg paclitaxel in 200 μL PBS per mouse), once a week, i.p. route; • compound of formula (I): 50 mg/kg (as suspension in the vehicle solution at a concentration of up to 25 mg/mL), once a day, oral route.
After 4 weeks of treatment, the tumor incidence and weight are determined in each of the mice.

SKOV3ip1 cells = experiment: Human SKOV3ip1 tumor growth inhibition assay in mice; format: in vivo; settings: mice i.p. SKOV3ip1, after one month of treatment, paclitaxel 5 mg/kg once a week i.p., CF(I) 100 mg/kg once a day oral
Procedure: An aqueous 0.5% (by weight) solution of methylcellulose is prepared by stiffing the appropriate quantity of methylcellulose in the appropriate quantity of water for 4 hours. This solution can be prepared up to 3 days in advance. On the day of the experiment, 0.05% (by volume) of Tween 80 is dissolved in the methylcellulose solution previously obtained to yield the vehicle solution.
as §2, with “43 mice are” for “43 female nude mice are”, “with 10^6 SKOV3ip1 cells. Ten days” for “with 10^6 IGROV cells into the peritoneal cavity. Ten days”, “mice), paclitaxel (Mead Johnson, Princeton, N.J., USA) diluted 1:6” for “mice), paclitaxel diluted 1:6”, “PBS for further dilution and i.p. injections” for “PBS for i.p. injections”, “formula (I): 100 mg/kg (as” for “formula (I): 50 mg/kg (as”
After one month of treatment, the tumor incidence and weight are determined in each of the mice. At the same time, the ascite incidence and volume are also determined.

ovarian tumor cells = settings: in vitro; cited from earlier work
human ovarian carcinoma = settings: in vitro and in vivo; cited from earlier work
ovarian cancer = settings: combined with paclitaxel; cited from earlier work

SMILES | Body weight (g) Mean ± S.D. (HeyA8-MDR cells) | Tumor incidence (HeyA8-MDR cells) | Tumor weight (g) Median (range) (HeyA8-MDR cells) | Body weight (g) Mean ± S.D. (IGROV cells) | Tumor incidence (IGROV cells) | Tumor weight (g) Median (range) (IGROV cells) | Ascite incidence (SKOV3ip1 cells) | Ascites (mL) Median (range) (SKOV3ip1 cells) | Body weight (g) Mean ± S.D. (SKOV3ip1 cells) | Tumor incidence (SKOV3ip1 cells) | Tumor weight (g) Median (range) (SKOV3ip1 cells) | other results
CCCNS(=O)(=O)Nc1ncnc(OCCOc2ncc(Br)cn2)c1-c1ccc(Br)cc1 [CF(I), macitentan] | 27.0 ± 2.2 g | 6/10 | 0.1 (0-0.3) g | 31.0 ± 4.4 g | 10/10 | 0.7 (0.4-1.3) g | 7/10 | 0.4 (0-4.7) mL | 25.5 ± 2.6 g | 7/10 | 2.3 (0-4.6) g | Ascite incidence (SKOV3ip1 cells; listed as compound of formula (I)): 7 out of 10
CCCC[C@@H](NC(=O)[C@@H](Cc1cn(C(=O)OC)c2ccccc12)NC(=O)[C@H](CC(C)(C)C)NC(=O)N1[C@H](C)CCC[C@@H]1C)C(=O)O [BQ 788] |  |  |  |  |  |  |  |  |  |  |  | Inhibition of cell adhesiveness (ovarian tumor cells): ineffective
CC(=O)O[C@H]1C(=O)[C@@]2(C)[C@H]([C@H](OC(=O)c3ccccc3)[C@]3(O)C[C@H](OC(=O)[C@H](O)[C@@H](NC(=O)c4ccccc4)c4ccccc4)C(C)=C1C3(C)C)[C@]1(OC(C)=O)CO[C@@H]1C[C@@H]2O [Paclitaxel] | 27.7 ± 3.7 g | 10/10 | 1.0 (0.5-2.3) g | 28.5 ± 2.4 g | 9/10 | 0.5 (0-0.9) g | 4/9 | 0.1 (0-0.2) mL | 23.6 ± 1.9 g | 9/9 | 0.4 (0.1-0.5) g | Ascite incidence (SKOV3ip1 cells; listed as paclitaxel): 4 out of 9; Tumor incidence (SKOV3ip1 cells; listed as paclitaxel): all mice still had tumors
COc1nc(C)cnc1NS(=O)(=O)c1cccnc1-c1ccc(-c2nnco2)cc1 [ZD4054] |  |  |  |  |  |  |  |  |  |  |  | Effect on tumor growth and paclitaxel activity (human ovarian carcinoma): inhibits tumor growth and enhances paclitaxel activity
CCCCN(CCCC)C(=O)CN1C[C@H](c2ccc3c(c2)OCO3)[C@@H](C(=O)O)[C@@H]1c1ccc(OC)cc1 [ABT-627, atrasentan] |  |  |  |  |  |  |  |  |  |  |  | Effect of combination with paclitaxel (ovarian cancer): additive antitumor, apoptotic and antiangiogenic effects
